Data as given in patent US10029014B2, “Synthesis of novel asymmetric bow-tie PAMAM dendrimer-based conjugates for tumor-targeting drug delivery” (priority 2013, dated 2018).
Where two headings read alike, the source gives them in different places. Blank lines part the entries; values can stand above or below the molecule they belong to.

What was measured:
in vitro = conditions: human
ID-8 = test: Cytotoxicity assay, MTT method, ID-8 cells; conditions: read-out: Cytotoxicity (IC50, nM) ID-8
MX-1 = test: Cytotoxicity assay, MTT method, MX-1 cells; conditions: read-out: Cytotoxicity (IC50, nM) MX-1
WI-38 = test: Cytotoxicity assay, MTT method, WI-38 cells; conditions: read-out: Cytotoxicity (IC50, nM) WI-38; 72 hours of drug exposure at 37° C. under 5% CO2
[1] = 72 hours of drug exposure at 37° C. under 5% CO2

- IC50 at 72 h (in vitro): 175 nM
SMILES: CC(=O)O[C@H]1C(=O)[C@@]2(C)[C@H]([C@H](OC(=O)c3ccccc3)[C@]3(O)C[C@H](OC(=O)[C@H](O)[C@@H](NC(=O)c4ccccc4)c4ccccc4)C(C)=C1C3(C)C)[C@]1(OC(C)=O)CO[C@@H]1C[C@@H]2O [Paclitaxel]
- IC50 (ID-8; Mus musculus, ID8, 72 h): 21.2 nM
- IC50 (MX-1; Homo sapiens, MX1, 72 h): 3.83 nM

SMILES: CC(=O)O[C@@]12CO[C@@H]1C[C@H](O)[C@@]1(C)C(=O)[C@H](OC(=O)C3CC3)C3=C(C)[C@@H](OC(=O)[C@H](O)[C@H](C=C(C)C)NC(=O)OC(C)(C)C)C[C@@](O)([C@@H](OC(=O)c4ccccc4)[C@H]21)C3(C)C [SB-T-1214]
- IC50 (ID-8; [1]): 1.89 nM
- IC50 (MX-1; [1]): 2.9 nM
- IC50 (WI-38): 4.14 nM
